Measured values: patent publication US10975078B2, “Fused indazole pyridone compounds as antivirals” (priority 2017, dated 2021)

tested on: HBsAg secretion, HepG2-Clone42 cells (Tet-inducible HBV-expressing, HBV ayw strain); experiment: HBsAg assay (HBsAg ELISA, secreted HBV sAg from HepG2-Clone42 cells); format: cell-based; conditions: Hepatitis B virus, read-out: HBsAg (nM), EC50 = concentration at which HBsAg secretion was reduced 50% compared to DMSO control
Method: HepG2-Clone42, a Tet-inducible HBV-expressing cell line with a stably integrated 1.3 mer copy of the HBV ayw strain, was generated based on the Tet-inducible HepAD38 cell line with slight modifications. Ladner S K, et al., Antimicrobial Agents and Chemotherapy. 41(8):1715-1720 (1997). HepG2-Clone42 cells were cultured in DMEM/F-12+Glutamax™ (Life Technologies, Carlsbad, Calif., USA), supplemented with 10% fetal bovine serum (Life Technologies), G-418 (Corning, Manassas, Va., USA) at a final concentration of 0.5 mg/mL, and 5 μg/mL Doxycycline (Sigma, St. Louis, Mo., USA) and maintained in 5% CO2 at 37° C.
HepG2-Clone42 cells were seeded into black clear-bottom 96-well plates at a concentration of 6.0×10^4 cells/well. 24 hours post-seeding, the cells were treated with 200 μl/well of media containing five-fold serial dilutions of compounds in DMSO. DMSO alone was used as the no drug control. The final DMSO concentration in all wells was 0.5%.
The HBsAg ELISA kit (Alpha Diagnostic International, San Antonio, Tex., USE, Catalog #4110) was used to determine the level (semi-quantitative) of secreted HBV sAg. The HBSAg ELISA assay was performed following the manufacturer's protocol as described.
Step 1. Pipet 100 μL each of compound or DMSO treated samples into HBsAg ELISA plates. Seal plates and incubate at room temp for 60 minutes.
Step 2. Aspirate samples and wash three times with Wash Buffer. Dispense 100 μL of antibody-HRP conjugate to each well. Incubate at room temp for 30 minutes.
Step 3. Aspirate samples and wash three times with Wash Buffer. Add 100 μL of TMB Substrate to all wells and incubate 15 minutes at room temp.
Step 4. Dispense 100 μL of Stop Solution to each well. Measure absorbance of ELISA plate at 450 nm.
Dose-response curves were generated and the EC50 value was defined as the compound concentration at which HBsAg secretion was reduced 50% compared to the DMSO control.
EC50 values were determined as follows:
Determine the percent of HBsAg secretion inhibition. Calculate the percent inhibition on of HBsAg secretion inhibition using the following equation: […]
where XC is the absorbance signal from compound-treated well; MB is average absorbance signal (background signal) for column 12 (no cells+HBsAg ELISA sample buffer) and MD is average absorbance signal from DMSO-treated wells. Then calculate EC50 values by non-linear regression using a four parameter curve logistic equation.
The curve fit model employed is XLFit Dose Response One Site Model 204: y=(A+((B−A)/(1+(10^((C−x)*D))))) where A is the minimum y value, B is the maximum y value, C is the log EC50 value, and D is the slope factor. In the following table+≥100 nM; 100 nM>++≥1 nM; 1 nM>+++

Compound | EC50 [nM]
CC(C)(C)C1Cn2nc3c(OCCCS(C)(=O)=O)cccc3c2-c2cc(=O)c(C(=O)O)cn21 (racemic) [Example 2.30, 6-(tert-butyl)-10-(3-(methylsulfonyl)propoxy)-2-oxo-6,7-dihydro-2H-pyrido[2′,1′:3,4]pyrazino[1,2-b]indazole-3-carboxylic Acid] | 1 to 100
COCCCOc1cccc2c3n(nc12)CC(C(C)(C)C)n1cc(C(=O)O)c(=O)cc1-3 (racemic) [Example 2.31, 6-(tert-butyl)-10-(3-methoxypropoxy)-2-oxo-6,7-dihydro-2H-pyrido[2′,1′:3,4]pyrazino[1,2-b]indazole-3-carboxylic Acid] | < 1
CC(C)(C)C1Cn2nc3c(OCC4CNC4)cccc3c2-c2cc(=O)c(C(=O)O)cn21 (racemic) [Example 2.32, 10-(azetidin-3-ylmethoxy)-6-(tert-butyl)-2-oxo-6,7-dihydro-2H-pyrido[2′,1′:3,4]pyrazino[1,2-b]indazole-3-carboxylic Acid] | > 100
CN(C)C(=O)COc1cccc2c3n(nc12)CC(C(C)(C)C)n1cc(C(=O)O)c(=O)cc1-3 (racemic) [Example 2.36, 6-(tert-butyl)-10-(2-(dimethylamino)-2-oxoethoxy)-2-oxo-6,7-dihydro-2H-pyrido[2′,1′:3,4]pyrazino[1,2-b]indazole-3-carboxylic Acid] | < 1
CC(C)(C)C1Cn2nc3c(OC4CCOC4)cccc3c2-c2cc(=O)c(C(=O)O)cn21 (racemic) [Example 2.37, 6-(tert-butyl)-2-oxo-10-((tetrahydrofuran-3-yl)oxy)-6,7-dihydro-2H-pyrido[2′,1′:3,4]pyrazino[1,2-b]indazole-3-carboxylic Acid] | 1 to 100
CC(C)(C)C1Cn2nc3c(OC4CCOCC4)cccc3c2-c2cc(=O)c(C(=O)O)cn21 (racemic) [Example 2.38, 6-(tert-butyl)-2-oxo-10-((tetrahydro-2H-pyran-4-yl)oxy)-6,7-dihydro-2H-pyrido[2′,1′:3,4]pyrazino[1,2-b]indazole-3-carboxylic Acid] | 1 to 100
CC(C)(C)C1Cn2nc3c(OCC4CC(F)(F)C4)cccc3c2-c2cc(=O)c(C(=O)O)cn21 (racemic) [Example 2.39, 6-(tert-butyl)-10-((3,3-difluorocyclobutyl)methoxy)-2-oxo-6,7-dihydro-2H-pyrido[2′,1′:3,4]pyrazino[1,2-b]indazole-3-carboxylic Acid] | < 1
CC(C)(C)C1Cn2nc3c(OCCC(F)(F)F)cccc3c2-c2cc(=O)c(C(=O)O)cn21 (racemic) [Example 2.40, 6-(tert-butyl)-2-oxo-10-(3,3,3-trifluoropropoxy)-6,7-dihydro-2H-pyrido[2′,1′:3,4]pyrazino[1,2-b]indazole-3-carboxylic Acid] | < 1
CC(C)(C)C1Cn2nc3c(OCCF)cccc3c2-c2cc(=O)c(C(=O)O)cn21 (racemic) [Example 2.41, 6-(tert-butyl)-10-(2-fluoroethoxy)-2-oxo-6,7-dihydro-2H-pyrido[2′,1′:3,4]pyrazino[1,2-b]indazole-3-carboxylic Acid] | < 1
CCOc1cccc2c3n(nc12)CC(C(C)(C)C)n1cc(C(=O)O)c(=O)cc1-3 (racemic) [Example 2.42, 6-(tert-butyl)-10-ethoxy-2-oxo-6,7-dihydro-2H-pyrido[2′,1′:3,4]pyrazino[1,2-b]indazole-3-carboxylic Acid] | < 1
CN(C)CCCOc1cccc2c3n(nc12)CC(C(C)(C)C)n1cc(C(=O)O)c(=O)cc1-3 (racemic) [Example 2.43, 6-(tert-butyl)-10-(3-(dimethylamino)propoxy)-2-oxo-6,7-dihydro-2H-pyrido[2′,1′:3,4]pyrazino[1,2-b]indazole-3-carboxylic Acid] | > 100
CC(C)(C)C1Cn2nc3c(OCC4CCOCC4)cccc3c2-c2cc(=O)c(C(=O)O)cn21 (racemic) [Example 2.44, 6-(tert-butyl)-2-oxo-10-((tetrahydro-2H-pyran-4-yl)methoxy)-6,7-dihydro-2H-pyrido[2′,1′:3,4]pyrazino[1,2-b]indazole-3-carboxylic Acid] | 1 to 100
